Counter-ions that a name gives are not always drawn. Like-named read-outs stand apart in the source and are kept apart here. Residues, ends and D or L forms follow the SMILES beside them. *: point of attachment. Cbz = O=C(OCc1ccccc1)*
Test system: murine neural precursor cells (neurosphere cultures)
Experiment: HTS of LOPAC library against secondary neurosphere cultures, MTT proliferation assay at 3 μM, day 7 (z score, P value)
Assay type: cell-based, mouse
[1] = LOPAC library screen at 3 μM, secondary neurosphere cultures, MTT
[2] = yes/no: significantly inhibited neurosphere proliferation in the primary screen
[3] = LOPAC library screen, 3 μM, MTT, neurosphere cultures
[4] = LOPAC screen, neurosphere MTT proliferation, 3 μM, day 7
[5] = yes/no: significantly inhibited neurosphere proliferation (P<0.01) in primary screen
[6] = LOPAC primary screen, neurosphere MTT proliferation, 3 μM, day 7
[7] = yes = significantly inhibited neurosphere proliferation (P<0.01) in the primary screen
[8] = yes/no: significantly inhibited neurosphere proliferation (P<0.01) in the primary screen
[9] = LOPAC library screen at 3 μM, MTT, secondary neurosphere cultures, screened in singlets
[10] = LOPAC library screen, 3 μM, MTT, secondary neurosphere cultures, day 7

SMILES	Activity [5]	Z Score	Z score [6]	Activity [7]	also measured
N[C@H]1CONC1=O [L-Cycloserine]					Z Score [1]: −0.1552; Z score (primary LOPAC screen, 3 μM, MTT, neurosphere proliferation): −0.155; Activity [2]: no
N[C@@H](CS(=O)O)C(=O)O [L-Cysteinesulfinic Acid]	no				Z Score [3]: 1.458; Z score [4]: 1.458
Cl.N[C@@H](CCC(=O)O)C(=O)O [L-Glutamic acid hydrochloride]	no	−0.4727	−0.473		
NC(=O)CC[C@H](N)C(=O)O [L-Glutamine]	no				Z Score (168 h, 3 µM): 0.8278; Z score (168 h, 3 µM): 0.828
Cl.N[C@@H](Cc1c[nH]cn1)C(=O)O [L-Histidine hydrochloride]	no	−1.421	−1.421		
CC(C)C[C@H](N)CSSC[C@@H](N)CC(C)C.Cl.Cl [L-Leucinethiol, oxidized dihydrochloride]	no	−0.584	−0.584		
CC(=N)NCCC[C@H](N)C(=O)O.Cl [L-N5-(1-Iminoethyl)ornithine hydrochloride]	no	−0.9339	−0.934		
CC(=N)NCCCC[C@H](N)C(=O)O.Cl [L-N6-(1-Iminoethyl)lysine hydrochloride]	no	−0.3809	−0.381		
N[C@@H](Cc1c[nH]c2ccccc12)C(=O)O [L-Tryptophan]		0.2241			Activity: no; Z score: 0.224
C=CC[C@H](N)C(=O)O [L-allylglycine]					Z Score (168 h, 3 µM): −1.155; Z score (168 h, 3 µM): −1.155; Activity [2]: no
C[C@](N)(Cc1ccc(O)c(O)c1)C(=O)O [L-alpha-Methyl DOPA]		−0.897	−0.897	no	
C[C@](N)(Cc1ccc(O)cc1)C(=O)O [L-alpha-Methyl-p-tyrosine]		−1.8	−1.800	no	
O=C(O)[C@@H]1CCN1 [L-azetidine-2-carboxylic acid]		0.9837	0.984		Activity (yes/no: significantly inhibited neurosphere proliferation in primary screen): no
CN1CCc2ccccc2Cc2[nH]c3ccccc3c2CC1 [LE 300]		−1.07			Activity: no; Z score: −1.070
C/C(O)=C(\C#N)C(=O)Nc1cc(Br)ccc1Br [LFM-A13]	no	4.5	4.500		
CC(O)C(C)OC(=O)[C@@H]1C[C@@H]2c3cccc4c3c(cn4C(C)C)C[C@H]2N(C)C1.O=C(O)/C=C\C(=O)O (some centres unmarked) [LY-53,857 maleate]		−0.3382	−0.338		Activity [8]: no
CN1C2CCC1CC(NC(=O)c1nn(C)c3ccccc13)C2.O=C(O)/C=C\C(=O)O (centres unmarked) [LY-278,584 maleate]		−1.074	−1.074	no	
Cl.O=c1cc(N2CCOCC2)oc2c(-c3ccccc3)cccc12 [LY-294,002 hydrochloride]	no	−1.217	−1.217		
CC(CCc1ccccc1)NCC(O)c1ccc(O)c(C(N)=O)c1 (centres unmarked) [Labetalol hydrochloride]			−1.097		Activity: no; Z Score [1]: −1.097
Nc1nnc(-c2cccc(Cl)c2Cl)c(N)n1 [Lamotrigine]	no		−1.095		Z Score [1]: −1.095
Cc1c(OCC(F)(F)F)ccnc1C[S+]([O-])c1nc2ccccc2[nH]1 (centres unmarked) [Lansoprazole]	no		−0.034		Z Score [3]: −0.0336
Cc1oncc1C(=O)Nc1ccc(C(F)(F)F)cc1 [Leflunomide]	no		4.103		Z Score [9]: 4.103
C=CCN1CC[C@]23CCCC[C@H]2[C@H]1Cc1ccc(O)cc13 [Levallorphan tartrate]			−0.346	no	Z Score [1]: −0.3465
CC[N+](C)(CC)CC(=O)Nc1c(C)cccc1C.[Cl-] [Lidocaine N-methyl hydrochloride]	no		−0.683		Z Score [1]: −0.6828
CCN(CC)CC(=O)Nc1c(C)cccc1C [Lidocaine hydrochloride]	no		−0.111		Z Score [1]: −0.1111
O=C1N(c2ccccc2)c2ccccc2C1(Cc1ccncc1)Cc1ccncc1 [Linopirdine]			−0.553	no	Z Score [1]: −0.5525
[Cl-].[Li+] [Lithium Chloride]	no	−0.9113	−0.911		
CCn1cc(C(=O)O)c(=O)c2cc(F)c(N3CCNC(C)C3)c(F)c21 (centres unmarked) [Lomefloxacin hydrochloride]			0.137		Activity: no; Z Score [3]: 0.1374

SMILES	Activity [5]	Z Score	Z score [6]	Activity [7]	also measured
O=C(O)c1nn(Cc2ccc(Cl)cc2Cl)c2ccccc12 [Lonidamine]	no		0.436		Z Score [3]: 0.4358
CN(C)C(=O)C(CCN1CCC(O)(c2ccc(Cl)cc2)CC1)(c1ccccc1)c1ccccc1 [Loperamide hydrochloride]	no	−0.4976	−0.498		
CCOC(=O)N1CCC(=C2c3ccc(Cl)cc3CCc3cccnc32)CC1 [Loratadine]	no		−1.823		Z Score [10]: −1.823
CCCCCN(CCCCC)C(=O)C(CCC(=O)O)NC(=O)c1ccc(Cl)c(Cl)c1 (centres unmarked) [Lorglumide sodium]			−2.092	no	Z Score [10]: −2.092
CN1CCN(C2=Nc3ccccc3Oc3ccc(Cl)cc32)CC1 [Loxapine succinate]	no	−0.7477	−0.748		
O=c1cc(-c2ccc(O)c(O)c2)oc2cc(O)cc(O)c12 [Luteolin]	no		−1.323		Z Score [10]: −1.323
O=C(O)/C(=C/c1c(C(=O)O)[nH]c2cc(Cl)cc(Cl)c12)c1ccccc1 [MDL 105,519]		2.565			Activity: no; Z score: 2.565
CC(C)[C@H](NC(=O)OCc1ccccc1)C(=O)N[C@H](C=O)Cc1ccccc1 [MDL 28170] (Cbz-Val-Phe-aldehyde)					Z Score (168 h, 3 µM): −1.139; Z score (168 h, 3 µM): −1.139
CC[N+](CC)(CC)CCOc1ccc(/C=C/c2ccccc2)cc1 [MG 624]					Z Score (168 h, 3 µM): −10.66; Z score (168 h, 3 µM): −10.660; Activity [8]: yes
COc1cc(C(O)CO)ccc1OS(=O)(=O)[O-].[K+] (centres unmarked) [MHPG sulfate potassium]	no	−0.5556	−0.556		
CCCCCCCCCCCCCCCCOCC(COCC(F)(F)F)OP(=O)(O)OC (centres unmarked) [MJ33]		1.364	1.364	no	
CC(C)c1ccc2c(c1)c(SC(C)(C)C)c(CC(C)(C)C(=O)O)n2Cc1ccc(Cl)cc1 [MK-886]		−1.549	−1.549	no	
CN1CC[C@]2(CCN3CCc4c(oc5ccccc45)[C@@H]3C2)N(C)C1=O.Cl [MK-912]		−0.582	−0.582	no	
O=S(=O)(c1cccc2c(I)cccc12)N1CCCNCC1 [ML-7]		−11.27	−11.274		Activity [8]: yes
CN1C2CCC1CC(OC(=O)c1cc(Cl)cc(Cl)c1)C2 (centres unmarked) [ML-9]		−9.322	−9.322		
CCCOC(=O)c1c(-c2ccccc2)nc(CC)c(C(=O)SCC)c1CCC [MRS 1523]		−0.001312	−0.001	no	
CCCn1c(=O)c2[nH]c(-c3ccc(OCC(=O)Nc4ccc(C#N)cc4)cc3)nc2n(CCC)c1=O [MRS 1754]		0.9268	0.927	no	
C#CCN1C(C)=C(C(=O)OC)C(c2cccc([N+](=O)[O-])c2)C(C(=O)OCC)=C1C (centres unmarked) [MRS 1845]		−0.006196	−0.006		Activity: no
Cc1nc(N=Nc2ccc(C(=O)O)cc2)c(COP(=O)(O)O)c(C=O)c1O [MRS 2159]		−0.2666	−0.267	no	
CNc1ncnc2c1ncn2[C@H]1C[C@H](OP(=O)(O)O)[C@@H](COP(=O)(O)O)O1 [MRS 2179]		−1.246	−1.246	no	
CNCCCC12CCC(c3ccccc31)c1ccccc12 [Maprotiline hydrochloride]			−0.361	no	Z Score [1]: −0.3615
C[N+](C)(C)CC#CCOC(=O)Nc1cccc(Cl)c1.[Cl-] [McN-A-343]	no	−0.08897			Z score [4]: −0.089
CN(N=O)c1ccc(O)c(O)c1 [Me-3,4-dephostatin]		0.5834	0.583	no	
CNC1(C)C2CCC(C2)C1(C)C (centres unmarked) [Mecamylamine hydrochloride]			−2.108	no	Z Score [10]: −2.108
Cc1ccc(Cl)c(Nc2ccccc2C(=O)O)c1Cl [Meclofenamic acid sodium]			2.233	no	Z Score [9]: 2.233
COc1ccc2[nH]cc(CCNC(C)=O)c2c1 [Melatonin]			−0.241	no	Z Score [1]: −0.2407
Cc1cnc(NC(=O)C2=C(O)c3ccccc3S(=O)(=O)N2C)s1 [Meloxicam sodium]				no	
